Measured values reported in patent publication US20080249129A1, “Compositions and Methods for Treatment of Protein Misfolding Diseases” (priority 2004, published 2008).
Where a name gives a salt, the structure may show the parent alone. Peptide text beside a SMILES is read from it.

Test system: yeast expressing two copies of alpha synuclein
Type: cell-based
Conditions: not given
Description: (§1) An exemplary aS-expressing yeast cell for use in a growth rescue screen described herein is yeast expressing two copies of aS, as described in Outeiro et al. (2003) Science 302:1772. An exemplary htt-expressing strain for use in a growth rescue screen described herein is yeast expressing a fusion protein comprising a FLAG tag and an expanded htt polyQ (103) domain, as described in Meriin et al. (2002) J. Cell Biol. 158:591.
(§2) Phenotype MicroArray™ (Biolog, Inc., Hayward, Calif.) was employed to evaluate the effects of various compounds in yeast expressing one or two copies of alpha synuclein.

Compound | effect on alpha synuclein-mediated toxicity
CCC(O)C(=O)O (racemic) [D,L-a-hydroxy-butyric acid] | suppressors of alpha synuclein-mediated toxicity
Oc1c(Cl)cc(Cl)c(Cl)c1Cc1c(O)c(Cl)cc(Cl)c1Cl [hexachlorophene] | suppressors of alpha synuclein-mediated toxicity
sodium metavanadate | suppressors of alpha synuclein-mediated toxicity
CC(C)Cc1ccc(C(C)C(=O)O)cc1 (stereo not drawn) [ibuprofen] | suppressors of alpha synuclein-mediated toxicity
CC(Cc1ccc(O)c(O)c1)C(C)Cc1ccc(O)c(O)c1 (stereo not drawn) [nordihydroguaiaretic acid] | suppressors of alpha synuclein-mediated toxicity

Same assay, conditions: yeast expressing two copies of alpha synuclein; Phenotype MicroArray

Compound | effect on alpha synuclein-mediated toxicity
O=[Si]([O-])[O-].[Na+].[Na+] [sodium metasilicate] | suppressors of alpha synuclein-mediated toxicity
Cc1cccc(O)c1 [m-cresol] | suppressors of alpha synuclein-mediated toxicity
ruthenium red | suppressors of alpha synuclein-mediated toxicity

Test system: yeast expressing a toxic amount and form of huntingtin
Type: cell-based
Conditions: not given
Description: For example, the Bioscreen-C system (Labsystem Corp, Helsinki, Finland) permits the growth of up to 200 cell cultures at the same time, under different conditions. Growth rates are monitored optically, recorded automatically, and stored as digital files for further manipulations. […] Mutants and chemicals from a variety of sources will be tested.
(§3) Phenotype MicroArray™ (Biolog, Inc., Hayward, Calif.) was employed to evaluate the ability of various compounds to rescue viability in yeast expressing a toxic amount and form of huntingtin. […] Bioscreen C MBR (Labsystem Corp, Helsinki, Finland) was also used to evaluate the effects of the clioquinols.

Compound | effect on huntingtin-mediated toxicity
Oc1cccc2cccnc12 [8-Hydroxyquinoline] | alleviated huntingtin-mediated toxicity

Same assay, conditions: yeast expressing toxic huntingtin; Bioscreen C MBR

Compound | effect on huntingtin-mediated toxicity
O=[N+]([O-])c1ccc(O)c2ncccc12 [8-Hydroxy-5-nitroquinoline] | alleviated huntingtin-mediated toxicity
Cc1ccc2c(Cl)cc(Cl)c(O)c2n1 [5,7-Dichloro-8-hydroxy-quinaldine] | alleviated huntingtin-mediated toxicity

Test system: yeast expressing a toxic amount and form of huntingtin
Type: cell-based
Conditions: not given
Remark: another data set of the same source
Description: as §1, §3

Compound | effect on huntingtin-mediated toxicity (rescue of viability)
Oc1cccc2cccnc12 [8-Hydroxyquinoline] | suppressors of huntingtin-mediated toxicity
CC(Cc1ccc(O)c(O)c1)C(C)Cc1ccc(O)c(O)c1 (stereo not drawn) [nordihydroguaiaretic acid] | suppressors of huntingtin-mediated toxicity

Same assay, conditions: yeast expressing toxic huntingtin; Phenotype MicroArray

Compound | effect on huntingtin-mediated toxicity (rescue of viability)
O=[N+]([O-])c1ccc(O)c2ncccc12 [8-Hydroxy-5-nitroquinoline] | suppressors of huntingtin-mediated toxicity
Cc1ccc2c(Cl)cc(Cl)c(O)c2n1 [5,7-Dichloro-8-hydroxy-quinaldine] | suppressors of huntingtin-mediated toxicity
Cc1cccc(O)c1 [m-cresol] | suppressors of huntingtin-mediated toxicity
N=C(N)N [guanidine hydrochloride] | suppressors of huntingtin-mediated toxicity

Test system: yeast expressing one copy of alpha synuclein
Type: cell-based
Conditions: not given
Description: as §2

Compound | effect on alpha synuclein-mediated toxicity
sodium phosphate [sodium phosphate pH 7] | enhancers of alpha synuclein-mediated toxicity
O=S([O-])([O-])=S.[Na+].[Na+] [sodium thiosulfate] | enhancers of alpha synuclein-mediated toxicity

Same assay, conditions: yeast expressing one copy of alpha synuclein; Phenotype MicroArray

Compound | effect on alpha synuclein-mediated toxicity
COc1ccc(C[C@H]2NC[C@H](O)[C@H]2OC(C)=O)cc1 [anisomycin] | enhancers of alpha synuclein-mediated toxicity
O=C([O-])c1ccccc1.[Na+] [sodium benzoate pH 5.2, sodium benzoate] | enhancers of alpha synuclein-mediated toxicity
CC1=C(C(=O)Nc2ccccc2)S(=O)(=O)CCO1 [oxycarboxin] | enhancers of alpha synuclein-mediated toxicity
CSCC[C@H](NC(=O)[C@@H](N)Cc1ccccc1)C(=O)O [Phe-Met] (H-Phe-Met-OH) | enhancers of alpha synuclein-mediated toxicity
CCCCCCCCCCCCC/C=C/[C@@H](O)[C@@H](N)CO [D-Sphingosine] | enhancers of alpha synuclein-mediated toxicity
CN(C)C(=O)/N=N/C(=O)N(C)C [diamide] | enhancers of alpha synuclein-mediated toxicity
COc1ccc2c(c[n+](C)c3c4cc5c(cc4ccc23)OCO5)c1OC [chelerythrine] | enhancers of alpha synuclein-mediated toxicity
OP(O)(=S)S [dithiophosphate] | enhancers of alpha synuclein-mediated toxicity
CCCCCCCCCCCC[N+](C)(C)C.[Br-] [dodecyltrimethyl ammonium bromide] | enhancers of alpha synuclein-mediated toxicity
OP(O)(O)=S [thiophosphate] | enhancers of alpha synuclein-mediated toxicity
CC1=CC(=O)c2c(O)cccc2C1=O [plumbagin] | enhancers of alpha synuclein-mediated toxicity
CC[C@H](C)[C@H](N)C(=O)O [L-Isoleucine] | enhancers of alpha synuclein-mediated toxicity
CC1=C(C(=O)Nc2ccccc2)SCCO1 [carboxin] | enhancers of alpha synuclein-mediated toxicity
CC[C@@]1([C@@H]2O[C@@H]([C@H]3O[C@@](O)(CO)[C@H](C)C[C@@H]3C)C[C@@H]2C)CC[C@H]([C@]2(C)CC[C@]3(C[C@H](O)[C@@H](C)[C@@H]([C@@H](C)[C@@H](OC)[C@H](C)C(=O)O)O3)O2)O1 [monensin] | enhancers of alpha synuclein-mediated toxicity
